Reference: ChEMBL document CHEMBL2385027, “Evaluation of 2'-α-fluorine modified nucleoside phosphonates as potential inhibitors of HCV polymerase” (Bioorg Med Chem Lett, 2013)

Columns and labels:
Hepatitis C virus [1] = assay: Antiviral activity against Hepatitis C virus infected in human Huh7 cells assessed as inhibition of HCV replication; type: functional, organism-based, Hepacivirus hominis; conditions: Huh-7
[2] = Cytotoxicity against human HuH7 cells; type: cell-based, Huh-7
Hepatitis C virus [3] = assay: Inhibition of HCV 1b NS5b polymerase; set-up: species or system Hepatitis C virus subtype 1b
[4] = Cytostatic activity against human MT4 cells; type: cell-based

| Structure (SMILES) | EC50 (Hepatitis C virus [1]) | CC50 [2] | IC50 (Hepatitis C virus [3]) | CC50 [4] |
| --- | --- | --- | --- | --- |
| Nc1ncnc2c1ncn2[C@@H]1O[C@H](CCP(=O)(O)O)[C@@H](O)[C@H]1F [listing 1 of 2 here] | > 500 µM | > 500 µM | – | – |
| Nc1ncnc2c1ncn2[C@@H]1O[C@H](CO)[C@@H](O)[C@H]1F [2'-BETA-FLUORO-2',3'-DEOXYADENOSINE] | – | – | 102 µM | – |
| O=c1ccn([C@@H]2O[C@H](/C=C/P(=O)(O)O)[C@@H](O)[C@H]2F)c(=O)[nH]1 [listing 1 of 2 here] | > 250 µM | > 250 µM | – | – |
| Nc1ccn([C@@H]2O[C@H](CO)[C@@H](O)[C@H]2F)c(=O)n1 | – | – | 1.85 µM | – |
| O=c1ccn([C@@H]2O[C@H](/C=C/P(=O)(O)O)[C@@H](O)[C@H]2F)c(=O)[nH]1 [listing 2 of 2 here] | – | – | 31 µM | – |
| Nc1ncnc2c1ncn2[C@@H]1O[C@H](CCP(=O)(O)O)[C@@H](O)[C@H]1F [listing 2 of 2 here] | – | – | 4.6 µM | – |
| O=c1ccn([C@@H]2O[C@H](CO)[C@@H](O)[C@H]2F)c(=O)[nH]1 | – | – | 12.8 µM | – |
| Nc1ccn([C@@H]2O[C@H](/C=C/P(=O)(O)O)[C@@H](O)[C@H]2F)c(=O)n1 [listing 1 of 2 here] | 76 µM | > 250 µM | – | – |
| Nc1ncnc2c1ncn2[C@@H]1O[C@H](/C=C/P(=O)(O)O)[C@@H](O)[C@H]1F [listing 1 of 2 here] | 132 µM | > 250 µM | – | – |
| Nc1ncnc2c1ncn2[C@@H]1O[C@H](/C=C/P(=O)(O)O)[C@@H](O)[C@H]1F [listing 2 of 2 here] | – | – | 2.1 µM | – |
| Nc1ccn([C@@H]2O[C@H](/C=C/P(=O)(O)O)[C@@H](O)[C@H]2F)c(=O)n1 [listing 2 of 2 here] | – | – | 1.9 µM | – |

Continued, in another order:

| EC50 (Hepatitis C virus [1]) | Structure (SMILES) | CC50 [2] | IC50 (Hepatitis C virus [3]) | CC50 [4] |
| --- | --- | --- | --- | --- |
| > 250 µM | O=c1ccn([C@@H]2O[C@H](COP(=O)(O)O)[C@@H](O)[C@H]2F)c(=O)[nH]1 | > 250 µM | – | – |
| 134 µM | Nc1ncnc2c1ncn2[C@@H]1O[C@H](COP(=O)(O)O)[C@@H](O)[C@H]1F | > 250 µM | – | – |
| 14.5 µM | CCCCOC(=O)[C@H](C)NP(=O)(/C=C/[C@H]1O[C@@H](n2ccc(=O)[nH]c2=O)[C@H](F)[C@@H]1O)N[C@@H](C)C(=O)OCCCC | > 250 µM | – | 92 µM |
| 134 µM | CCCCOC(=O)[C@H](C)NP(=O)(/C=C/[C@H]1O[C@@H](n2ccc(N)nc2=O)[C@H](F)[C@@H]1O)N[C@@H](C)C(=O)OCCCC | > 250 µM | – | > 250 µM |
| 58 µM | CCCCOC(=O)[C@H](C)NP(=O)(/C=C/[C@H]1O[C@@H](n2cnc3c(N)ncnc32)[C@H](F)[C@@H]1O)N[C@@H](C)C(=O)OCCCC | 113 µM | – | 18 µM |
| 11 µM | CCCCOC(=O)[C@H](C)NP(=O)(CC[C@H]1O[C@@H](n2cnc3c(N)ncnc32)[C@H](F)[C@@H]1O)N[C@@H](C)C(=O)OCCCC | 24 µM | – | 36 µM |
| 15 µM | Nc1ccn([C@@H]2O[C@H](COP(=O)(O)O)[C@@H](O)[C@H]2F)c(=O)n1 | > 250 µM | – | – |
